Measured values from patent US20030175438A1, “Treatments of solid substrates to enhance durability of treatments placed thereon” (priority 2002, published 2003).

Experiments:
E. coli = test: CTM-0923 Dynamic Shake Flask Test (antimicrobial efficacy of treated fabric); assay type: cell-based; design: concentration or dose not given beside the values
Description: Sample Preparation: Fabric samples were obtained from the JoAnn fabric chain and were commercial fabrics. […] The treatment solutions were allowed to hydrolyze from the trimethoxysilyl form to the trisilanol form before adding the fabrics. This takes only a few minutes to essentially complete. The solution temperature was raised to 100° C. before treating the fabrics for 60 seconds by immersion in the solutions with moderate agitation of the solution within the flask. After removing the samples from the hot solution, they were nip rolled to remove excess liquid. […] The samples were air dried before testing unless otherwise noted. The Extraction, stated in percent, was measured using the Bromphenol Blue Extraction Method using spectrophotometric determination. This method is CTM 0824, which has been modified for use herein in the following manner. The chlorinated solvent has been eliminated and the wavelength is 595 nm. Further, Dow Corning® […] has been substituted for the Triton.RTM. X-100 wetting agent of the test. What is measured is the diminution of the BPB Absorbance at 595 nm relative to the BPB standard solution and it is reported in percent Extraction. Antimicrobial efficacy was determined using the CTM-0923 Dynamic Shake Flask Test unless otherwise stated. Samples were air dried before testing. The % extraction was measured using the BPB extraction Method using spectrophotometric determination at 595 nm. Antimicrobial efficacy was determined, when applicable, using the ASTM CTM 0923 Dynamic Shake Flask Test. The substrate may be either wet or dry. The testing results can be found on Tables XI and XII, respectively, infra.

[1] = Bromphenol Blue (BPB) Extraction Method, spectrophotometric at 595 nm (modified CTM 0824), on treated fabric; assay type: physicochemical; conditions: for BOILED IN WATER % EXTRACTION / CHANGE / NO BOIL % EXTRACTION: Table XII

For `CCCCCCCCCCCCCCCCCC[N+](C)(C)CCC[Si](OC)(OC)OC.[Cl-]` [AMT, N, N-dimethyl-N-Octadecyl-3-(trimethoxysilyl)propanaminium chloride], the “Efficacy - % Reduction” value (E. coli; ACRYLIC/MODACRYLIC, boiled 30 minutes, Table V) was 84%, the “Efficacy - % Reduction” value (E. coli; ACRYLIC/MODACRYLIC, not boiled, Table V) was 90% and the “Efficacy - % Reduction” value (E. coli; COTTON, boiled 30 minutes, Table V) was 99%. The “DSF - % REDUCTION” value (E. coli; COTTON, boiled 30 minutes, Table VIII) was 99%, the “DSF - % REDUCTION” value (E. coli; COTTON, boiled, Table X) was 93% and the “Efficacy - % Reduction” value (E. coli; COTTON, not boiled, Table V) was 99%. The “DSF - % REDUCTION” value (E. coli; COTTON, not boiled, Table VIII) was 99%, the “DSF - % REDUCTION” value (E. coli; COTTON, not boiled, Table X) was 89% and the “Efficacy - % Reduction” value (E. coli; NYLON, boiled 30 minutes, Table II) was 84%. For the same molecule, the “Efficacy - % Reduction” value (E. coli; NYLON, boiled 30 minutes, Table V) was 19%, the “DSF - % REDUCTION” value (E. coli; NYLON, boiled 30 minutes, Table VIII) was 22% and the “DSF - % REDUCTION” value (E. coli; NYLON, boiled, Table X) was 99%. For the same molecule, the “Efficacy - % Reduction” value (E. coli; NYLON, not boiled, Table II) was 90%, the “Efficacy - % Reduction” value (E. coli; NYLON, not boiled, Table V) was 99% and the “DSF - % REDUCTION” value (E. coli; NYLON, not boiled, Table VIII) was 99%. For the same molecule, the “DSF - % REDUCTION” value (E. coli; NYLON, not boiled, Table X) was 99%, the “Efficacy - % Reduction” value (E. coli; PET, boiled 30 minutes, Table II) was 99% and the “DSF - % REDUCTION” value (E. coli; PET, boiled 30 minutes, Table VIII) was 91%. For the same molecule, the “DSF - % REDUCTION” value (E. coli; PET, boiled, Table X (untreated control 50)) was 74%, the “Efficacy - % Reduction” value (E. coli; PET, not boiled, Table II) was 99% and the “DSF - % REDUCTION” value (E. coli; PET, not boiled, Table VIII) was 99%. The “DSF - % REDUCTION” value (E. coli; PET, not boiled, Table X (untreated control 50)) was 79%, the “Efficacy - % Reduction” value (E. coli; RAYON, boiled 30 minutes, Table II) was 19% and the “DSF - % REDUCTION” value (E. coli; RAYON, boiled 30 minutes, Table VIII) was 94%. The “DSF - % REDUCTION” value (E. coli; RAYON, boiled, Table X) was 99%, the “Efficacy - % Reduction” value (E. coli; RAYON, not boiled, Table II) was 99% and the “DSF - % REDUCTION” value (E. coli; RAYON, not boiled, Table VIII) was 99%. For the same molecule, the “DSF - % REDUCTION” value (E. coli; RAYON, not boiled, Table X) was 99%, the “BOILED IN WATER % EXTRACTION” value ([1]; 130° C./5 minutes) was 27% and the CHANGE ([1]; 130° C./5 minutes) was −34%. For the same molecule, the “NO BOIL % EXTRACTION” value ([1]; 130° C./5 minutes) was 61%, the CHANGE ([1]; 130° C./30 minutes) was −41% and the “NO BOIL % EXTRACTION” value ([1]; 130° C./30 minutes) was 68%. For the same molecule, the “% Extraction @ 595 nm” value ([1]; ACRYLIC MODACRYLIC, boiled 30 minutes, Table IV) was 45%, the “% BPB EXTRACTION CHANGE” value ([1]; ACRYLIC MODACRYLIC, boiled vs not boiled, Table IV) was −46% and the “% Extraction @ 595 nm” value ([1]; ACRYLIC MODACRYLIC, not boiled, Table IV) was 91%. The “Boiling Durability % BPB EXTRACTION @ 595 nm” value ([1]; ACRYLIC, boiled 30 minutes, Table XVII) was 14%, the “% EXTRACTION CHANGE” value ([1]; ACRYLIC, boiled vs not boiled, Table XVII) was −42% and the “Boiling Durability % BPB EXTRACTION @ 595 nm” value ([1]; ACRYLIC, not boiled, Table XVII) was 56%. For the same molecule, the “BOILED IN WATER % EXTRACTION” value ([1]; AIR DRIED) was 37%, the CHANGE ([1]; AIR DRIED) was −38% and the “NO BOIL % EXTRACTION” value ([1]; AIR DRIED) was 75%. For the same molecule, the “% BPB EXTRACTION @ 595 nm” value ([1]; COTTON, boiled 30 minutes, Table III) was 95%, the “% Extraction @ 595 nm” value ([1]; COTTON, boiled 30 minutes, Table IV) was 94% and the “% Extraction @ 595 nm” value ([1]; COTTON, boiled 30 minutes, Table VI) was 94%. The “% BPB EXTRACTION @ 595 nm” value ([1]; COTTON, boiled 30 minutes, Table XV) was 92%, the “% EXTRACTION CHANGE” value ([1]; COTTON, boiled vs not boiled, Table III) was −1% and the “% EXTRACTION CHANGE” value ([1]; COTTON, boiled vs not boiled, Table IX) was −1%. For the same molecule, the “% EXTRACTION CHANGE” value ([1]; COTTON, boiled vs not boiled, Table VII) was “+2%”, the “% EXTRACTION CHANGE” value ([1]; COTTON, boiled vs not boiled, Table XV) was −1% and the “% BPB EXTRACTION @ 595 nm” value ([1]; COTTON, boiled, Table IX) was 92%. The “% BPB EXTRACTION @ 595 nm” value ([1]; COTTON, boiled, Table VII) was 97%, the “% BPB EXTRACTION @ 595 nm” value ([1]; COTTON, not boiled, Table III) was 96% and the “% Extraction @ 595 nm” value ([1]; COTTON, not boiled, Table IV) was 95%. For the same molecule, the “% BPB EXTRACTION @ 595 nm” value ([1]; COTTON, not boiled, Table IX) was 93%, the “% Extraction @ 595 nm” value ([1]; COTTON, not boiled, Table VI) was 94% and the “% BPB EXTRACTION @ 595 nm” value ([1]; COTTON, not boiled, Table VII) was 95%. The “% BPB EXTRACTION @ 595 nm” value ([1]; COTTON, not boiled, oven dried 130° C. 5 minutes, Table XV) was 93%, the “% Extraction @ 595 nm” value ([1]; NYLON, boiled 30 minutes, Table I) was 45% and the “% BPB EXTRACTION @ 595 nm” value ([1]; NYLON, boiled 30 minutes, Table III) was 20%. For the same molecule, the “% Extraction @ 595 nm” value ([1]; NYLON, boiled 30 minutes, Table IV) was 45%, the “% BPB EXTRACTION @ 595 nm” value ([1]; NYLON, boiled 30 minutes, Table XV) was 30% and the “Boiling Durability % BPB EXTRACTION @ 595 nm” value ([1]; NYLON, boiled 30 minutes, Table XVII) was 26%. The “% BPB Extraction (change on boiling)” value ([1]; NYLON, boiled vs not boiled, Table I) was −37%, the “% EXTRACTION CHANGE” value ([1]; NYLON, boiled vs not boiled, Table III) was −57% and the “% BPB EXTRACTION CHANGE” value ([1]; NYLON, boiled vs not boiled, Table IV) was −25%.
